Experimental data from patent US20240398737A1, “FUNCTIONALIZED LONG-CHAIN HYDROCARBON MONO- AND DI-CARBOXYLIC ACIDS AND DERIVATIVES THEREOF, AND THEIR USE FOR THE PREVENTION OR TREATMENT OF DISEASE” (Espervita Therapeutics, Inc., priority 2021, published 2024).
Entries after “also recorded” stand apart in the source; their conditions may differ.

How the values were obtained:
[1] = tested on: human hematopoietic stem and progenitor cells; test: Megakaryopoiesis and platelet production in cultured human hematopoietic stem and progenitor cells; type: cell-based; conditions: for Inhibition of megakaryocyte/platelet parameters after addition on day 6 of culture: 30 μM added on day 6; for Inhibition of megakaryopoiesis or platelet production (overall): 30 μM, cultured human HSPC; for CD41a+ mean fluorescence intensity (MFI), normalized / Normalized cell size (CD41a+) / CD41a CD42b+ counts (mature megakaryocytes), normalized to reference media control / CD41a+ cells (megakaryocytes), normalized to reference media control / Platelet counts, normalized to reference media control: added day 0, 8 days culture, I-32 and I-1 30 μM, ABT-737 6 μmol; for CD41a CD42b+ counts (mature megakaryocytes), normalized to reference media control / CD41a+ cells (megakaryocytes), normalized to reference media control / Platelet counts, normalized to reference media control: average±SD
Description: Materials and Methods. Hematopoietic stem and progenitor cells, identified as viable CD45+ CD34+ cells, were isolated from peripheral blood of healthy donors by a method known in the art (see Ivetic N, Nazi I, Karim N et al. Producing megakaryocytes from a human peripheral blood source. Transfusion 2016; 56:1066-74). These isolated cells were then analyzed for purity before being expanded for four days using a commercial supplement to increase their cell population. After expansion, the cells were analyzed for purity, washed, and stimulated with a saturating concentration of thrombopoietin (20 ng/mL) and stem cell factor (50 ng/mL) to begin megakaryopoiesis. Compound I-32 and Compound I-1 were added at this timepoint at a concentration of 30 μM. The cells were then cultured for 8 days to develop into megakaryocytes and analyzed via flow cytometry to assess their number, maturity, and platelet count as defined by CD41a, CD42b and Calcein-AM expression. In addition, Compound I-32 and Compound I-1 were added to cells during the later stages of development (day 6) to assess their impact on maturation. ABT-737 (6 μmol) was used as a positive control and a DMSO vehicle control (<0.15% v/v) was the negative control. All counts are normalized to a media control (PBS) as a reference for basic cell growth.
Statistical analysis. Statistical analyses were carried out by comparing effects on measured parameters in comparison to vehicle control. A value of […] (One-way ANOVA multiple comparisons) was considered as significant.
Two isolations were performed from two healthy donors (2 males) and used to assess the impacts of Compound I-32 and Compound I-1. For one of the isolations, enough expanded hematopoietic stem and progenitor cells (HSPC) (Experiment 1) were obtained so that the addition of the compounds on day 6 was also performed along with the initial experiment. For the other experiment (Experiment 2) only an 8-day incubation was performed.
All results were normalized to a reference media (PBS) and Compound I-32 and Compound I-1 were compared to a vehicle control. Reference compound ABT-737 is a known BCL-2 inhibitor and was used a positive control. Results in FIGS. 25A-25J are the summary of a single experiments conducted in triplicates. No statistical inhibition was detected for Compound I-32 or Compound I-1 (p>0.05 one-way ANOVA).

LIMK1 = LIMK1 (Homo sapiens (Human), UniProt P53667); test: Wild type kinase screen: LIMK1; type: biochemical; conditions: compound at 10 μM, 10 μM ATP, Data 1 and Data 2 duplicates
Chain of LIMK1 (P53667 whole entry, species assumed): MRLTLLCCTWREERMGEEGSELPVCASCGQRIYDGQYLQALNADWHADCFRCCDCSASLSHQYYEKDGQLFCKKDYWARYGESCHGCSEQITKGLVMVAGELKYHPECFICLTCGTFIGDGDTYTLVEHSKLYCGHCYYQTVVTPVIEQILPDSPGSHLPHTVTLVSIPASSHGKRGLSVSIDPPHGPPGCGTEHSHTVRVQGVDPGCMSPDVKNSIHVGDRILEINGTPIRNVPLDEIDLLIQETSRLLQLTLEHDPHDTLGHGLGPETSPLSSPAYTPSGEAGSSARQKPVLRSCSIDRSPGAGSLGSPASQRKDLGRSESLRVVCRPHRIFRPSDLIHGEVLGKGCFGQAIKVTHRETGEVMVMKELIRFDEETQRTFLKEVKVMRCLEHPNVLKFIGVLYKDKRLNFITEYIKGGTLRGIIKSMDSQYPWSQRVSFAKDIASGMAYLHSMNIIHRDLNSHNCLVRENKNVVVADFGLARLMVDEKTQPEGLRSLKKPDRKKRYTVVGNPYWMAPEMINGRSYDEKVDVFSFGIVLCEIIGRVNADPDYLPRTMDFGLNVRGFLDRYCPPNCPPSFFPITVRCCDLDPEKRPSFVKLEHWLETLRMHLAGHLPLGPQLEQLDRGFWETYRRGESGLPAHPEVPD

Aurora B = Aurora B (Homo sapiens (Human), UniProt Q96GD4); test: Wild type kinase screen: Aurora B; type: biochemical; conditions: compound at 10 μM, 10 μM ATP, Data 1 and Data 2 duplicates
Chain of Aurora B (Q96GD4 whole entry): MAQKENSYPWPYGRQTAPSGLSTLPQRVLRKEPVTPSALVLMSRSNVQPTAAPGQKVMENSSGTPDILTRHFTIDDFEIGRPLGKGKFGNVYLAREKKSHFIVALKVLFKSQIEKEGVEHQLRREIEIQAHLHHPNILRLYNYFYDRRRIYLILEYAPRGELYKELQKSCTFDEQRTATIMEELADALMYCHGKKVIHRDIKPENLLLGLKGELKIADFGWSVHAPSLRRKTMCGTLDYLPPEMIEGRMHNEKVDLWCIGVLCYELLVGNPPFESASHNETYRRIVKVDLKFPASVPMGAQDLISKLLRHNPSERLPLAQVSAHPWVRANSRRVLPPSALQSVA

AURORA C = AURORA C (Homo sapiens (Human), UniProt Q9UQB9); test: Wild type kinase screen: AURORA C; type: biochemical; conditions: compound at 10 μM, 10 μM ATP, Data 1 and Data 2 duplicates
Chain of AURORA C (Q9UQB9 whole entry): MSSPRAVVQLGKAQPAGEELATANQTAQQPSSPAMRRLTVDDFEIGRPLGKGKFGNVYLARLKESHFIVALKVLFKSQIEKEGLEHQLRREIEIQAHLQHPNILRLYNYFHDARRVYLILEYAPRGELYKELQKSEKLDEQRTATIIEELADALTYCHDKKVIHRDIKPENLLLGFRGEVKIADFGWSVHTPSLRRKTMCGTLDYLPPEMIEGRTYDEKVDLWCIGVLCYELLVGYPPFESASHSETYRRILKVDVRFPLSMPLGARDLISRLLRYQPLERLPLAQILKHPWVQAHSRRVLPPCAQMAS

[2] = tested on: Mouse primary hepatocytes; test: 14C-acetate incorporation into total lipids in mouse primary hepatocytes; type: cell-based; conditions: incorporation of 14C-acetate in primary mouse hepatocyte total lipids, 4 hours, 100 μM
Description: After perfusion, collagen digested liver cells were re-suspended in William's E media (11 mM glucose) (Gibco) supplemented with 10% fetal bovine serum (FBS) (Gibco), 2 mM L-glutamine (Gibco) and 1% Antibiotic-Antimycotic (Gibco) mixture and seeded in white opaque 96-well plates. On the following day, the cells were serum-starved for 2 hours, then treated with 0 μM, 0.1 μM, 0.3 μM, 0.5 μM, 1 μM, 3 μM, 10 μM, and 100 μM of Compound I-32, Compound I-1, Compound III-1 or Reference Compound (e.g., any of Compounds A-E or bempedoic acid) in the presence of ^14C-Acetate (1 μCi/ml, PerkinElmer). Each of Compound I-32, Compound I-1, Compound III-1, and Reference Compound was solubilized in 100% DMSO to a final concentration of 100 mM stock solution. In the experimental condition, the stock solution was diluted in serum free media (William's E media (11 mM glucose) (Gibco), 2 mM L-glutamine (Gibco) and 1% Antibiotic-Antimycotic) to yield the desired concentration of each compound. […] After 4 hours of treatment, the plates were washed two times with PBS (×1) and 100 μL microscint fluid (Microscint 0, part #601361) was added in each well. Plates were wrapped with aluminum foil and were shaken at 250 rpm for 2 h. After 2 h of shaking, ^14C incorporation into lipid was determined by liquid scintillation counting using a TopCount NXT Microplate Scintillation and Luminescence Counter (Perkin Elmer).
The effects of Compound I-32, Compound I-1, and Compound III-1 on mouse primary hepatocyte lipogenesis are represented in Table 13. Each Compound was assayed at a concentration of 0 μM (vehicle control), 0.1 μM, 0.3 μM, 0.5 μM, 1 μM, 3 μM, 10 μM, and 100 μM, unless otherwise noted. Statistically significant inhibition was determined by one-way ANOVA and Dennett's post hoc test where appropriate. […] IC50 values were determined by nonlinear regression. All statistical analyses were carried out using GraphPad Prism 8 software. A p-value of less than or equal 0.05 was considered significant.

RIPK4 = RIPK4 (Homo sapiens (Human), UniProt P57078); test: Wild type kinase screen: RIPK4; type: biochemical; conditions: compound at 10 μM, 10 μM ATP, Data 1 and Data 2 duplicates
Chain of RIPK4 (P57078 whole entry, species assumed): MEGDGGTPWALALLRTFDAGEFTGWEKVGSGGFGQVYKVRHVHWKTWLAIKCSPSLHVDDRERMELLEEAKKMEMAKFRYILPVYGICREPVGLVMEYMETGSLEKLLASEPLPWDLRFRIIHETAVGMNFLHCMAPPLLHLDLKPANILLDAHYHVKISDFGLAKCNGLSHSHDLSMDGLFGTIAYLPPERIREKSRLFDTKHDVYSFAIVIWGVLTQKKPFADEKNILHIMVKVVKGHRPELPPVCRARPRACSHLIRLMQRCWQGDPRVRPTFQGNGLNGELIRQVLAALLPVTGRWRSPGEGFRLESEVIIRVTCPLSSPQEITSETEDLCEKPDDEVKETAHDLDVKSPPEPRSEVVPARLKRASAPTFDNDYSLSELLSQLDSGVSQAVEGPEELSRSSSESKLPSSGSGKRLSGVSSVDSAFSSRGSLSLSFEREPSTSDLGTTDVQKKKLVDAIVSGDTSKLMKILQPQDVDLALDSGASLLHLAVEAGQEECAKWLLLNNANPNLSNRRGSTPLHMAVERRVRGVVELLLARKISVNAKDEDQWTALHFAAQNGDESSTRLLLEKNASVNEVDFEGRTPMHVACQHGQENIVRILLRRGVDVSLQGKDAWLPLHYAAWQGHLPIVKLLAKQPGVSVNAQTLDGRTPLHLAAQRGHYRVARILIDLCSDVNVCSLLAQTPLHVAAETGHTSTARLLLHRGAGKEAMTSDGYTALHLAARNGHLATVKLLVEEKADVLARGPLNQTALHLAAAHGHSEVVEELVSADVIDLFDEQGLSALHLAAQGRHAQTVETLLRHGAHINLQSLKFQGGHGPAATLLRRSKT

MELK = MELK (Homo sapiens (Human), UniProt Q14680); test: Wild type kinase screen: MELK; type: biochemical; conditions: compound at 10 μM, 10 μM ATP, Data 1 and Data 2 duplicates
Chain of MELK (Q14680 whole entry, species assumed): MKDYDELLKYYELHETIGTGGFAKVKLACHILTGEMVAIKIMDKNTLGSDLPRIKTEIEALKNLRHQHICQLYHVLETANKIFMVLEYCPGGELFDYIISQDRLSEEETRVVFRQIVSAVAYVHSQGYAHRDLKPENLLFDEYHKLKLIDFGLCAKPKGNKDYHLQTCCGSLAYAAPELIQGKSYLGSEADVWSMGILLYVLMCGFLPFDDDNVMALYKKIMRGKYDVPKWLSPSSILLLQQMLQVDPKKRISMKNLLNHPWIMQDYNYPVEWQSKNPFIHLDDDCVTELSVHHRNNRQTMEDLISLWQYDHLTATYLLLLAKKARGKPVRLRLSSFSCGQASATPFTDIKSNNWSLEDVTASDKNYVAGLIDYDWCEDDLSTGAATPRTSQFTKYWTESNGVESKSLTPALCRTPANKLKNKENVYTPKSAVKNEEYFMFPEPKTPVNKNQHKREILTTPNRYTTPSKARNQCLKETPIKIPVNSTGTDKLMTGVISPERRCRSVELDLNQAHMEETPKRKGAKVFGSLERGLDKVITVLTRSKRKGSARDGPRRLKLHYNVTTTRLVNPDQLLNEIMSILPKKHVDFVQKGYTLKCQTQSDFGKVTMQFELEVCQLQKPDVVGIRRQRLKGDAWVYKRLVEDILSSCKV

CC(C)(CCCCc1ccc(CCCCC(C)(C)C(=O)O)cc1)C(=O)O [Compound I-1, 6-[4-(5-carboxy-5-methylhexyl)-phenyl]-2,2-dimethylhexanoic acid]
Inhibition of megakaryocyte/platelet parameters after addition on day 6 of culture [1]: no inhibition detected | Inhibition of megakaryopoiesis or platelet production (overall) [1]: do not significantly affect; also recorded: do not inhibit | CD41a+ mean fluorescence intensity (MFI), normalized [1]: 109±10% | Normalized cell size (CD41a+) [1]: 98±3% | CD41a CD42b+ counts (mature megakaryocytes), normalized to reference media control [1]: 97±9% | CD41a+ cells (megakaryocytes), normalized to reference media control [1]: 94±2% | Platelet counts, normalized to reference media control [1]: 94±12% | % Enzyme Activity (relative to DMSO controls) (LIMK1): 71.9% | % Enzyme Activity (relative to DMSO controls) (Aurora B): 63.21% | % Enzyme Activity (relative to DMSO controls) (AURORA C): 93.1% | % change from control at 100 μM ± SEM(n) [2]: −84 ± 1.0 (n = 6) % | % Enzyme Activity (relative to DMSO controls) (RIPK4): 42.78% | % Enzyme Activity (relative to DMSO controls) (MELK): 106.55%

CC(C)(CCCCc1cccc(CCCCC(C)(C)C(=O)O)c1)C(=O)O [Compound I-32, 6-[3-(5-carboxy-5-methylhexyl)-phenyl]-2,2-dimethylhexanoic acid]
Inhibition of megakaryocyte/platelet parameters after addition on day 6 of culture [1]: no inhibition detected | Inhibition of megakaryopoiesis or platelet production (overall) [1]: do not significantly affect; also recorded: do not inhibit | CD41a+ mean fluorescence intensity (MFI), normalized [1]: 110±11% | Normalized cell size (CD41a+) [1]: 94±3% | CD41a CD42b+ counts (mature megakaryocytes), normalized to reference media control [1]: 106±17% | CD41a+ cells (megakaryocytes), normalized to reference media control [1]: 98±3% | Platelet counts, normalized to reference media control [1]: 134±34% | % Enzyme Activity (relative to DMSO controls) (LIMK1): 71.71% | % Enzyme Activity (relative to DMSO controls) (Aurora B): 67.29% | % Enzyme Activity (relative to DMSO controls) (AURORA C): 97.44% | % change from control at 100 μM ± SEM(n) [2]: −82 ± 2.8 (n = 6) % | % Enzyme Activity (relative to DMSO controls) (RIPK4): 42.74% | % Enzyme Activity (relative to DMSO controls) (MELK): 110.73%
